# Test results taken from patent US5382578A, “Methods for treating convulsions and ischemia with substituted dibenzoxazepine compounds” (G. D. Searle & Co., priority 1993, dated 1995).
# “Also recorded” adds a separate entry of the source. Where a name gives a salt, the structure may show the parent alone. Read-outs that look alike come from different tables or passages of the source.
# Assays:
# [1] = target: T1, prostaglandin E2-induced contractions of segments of guinea pig ileum (Cavia porcellus, UniProt A0A286XHJ6); assay: Prostaglandin (PGE) Antagonism Assay, guinea pig ileum; assay type: cell-based; design: key to PGE in guinea pig ileum, activity: Active: the initial concentration used yielded at least a two-fold shift (dose ratio greater than or equal to 2) in the dose response curve for prostaglandin E2
# T1 construct: Segments of ileum about 2 cm long were then cut and mounted in a 10-mL tissue bath; from tissue; host or cells: guinea pig ileum segments
# T1 sequence (A0A286XHJ6 1-405): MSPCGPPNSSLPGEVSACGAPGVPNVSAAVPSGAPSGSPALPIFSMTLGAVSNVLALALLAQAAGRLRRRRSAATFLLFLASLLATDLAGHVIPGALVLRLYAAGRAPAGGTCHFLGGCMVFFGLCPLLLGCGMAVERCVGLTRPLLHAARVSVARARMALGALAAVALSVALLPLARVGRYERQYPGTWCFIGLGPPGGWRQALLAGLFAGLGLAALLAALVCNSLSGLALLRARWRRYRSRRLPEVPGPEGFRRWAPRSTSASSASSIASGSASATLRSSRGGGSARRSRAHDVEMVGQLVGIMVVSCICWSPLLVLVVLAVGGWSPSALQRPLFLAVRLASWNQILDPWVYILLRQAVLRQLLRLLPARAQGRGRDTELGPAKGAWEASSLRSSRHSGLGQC
# Protocol: In order to determine the effectiveness of several of the compounds of the present invention ("test compounds") as prostaglandin E2 antagonists,a prostaglandin antagonism assay was conducted, as described below, to determine the ability of these compounds to inhibit prostaglandin E2 -induced contractions of segments of guinea pig ileum.
# Male albino guinea pigs weighing 200 to 500 grams were sacrificed by cervical dislocation. The ilea were then quickly removed from the guinea pigs and placed in a modified Tyrode solution, a solution which is known to those skilled in the art, containing one-half of the usual amount of magnesium ions.
# Segments of ileum about 2 cm long were then cut and mounted in a 10-mL tissue bath containing the modified Tyrode solution. The solution was maintained at 37° C. and aerated with a gaseous mixture of 95% oxygen and 5% carbon dioxide. Data for a control prostaglandin E2 dose response curve plotting concentration of prostaglandin E2 versus the intensity of contractions, detected isotonically, was then obtained by experimentally adjusting the dose of the prostaglandin E2 being injected into the tissue bath, in a manner known by those of skill in the art.
# solutions or suspensions containing an initial concentration (3 micromolar) of a test compound in modified Tyrode solution ("test solutions/suspensions") were then separately substituted for the control bath solution. Each test solution/suspension was then kept in constant contact with the ileum tissue, except for brief periods to drain the bath in preparation for rinsing with fresh test solution/suspension. A second prostaglandin E2 dose response curve was then generated for prostaglandin E2 in the presence of a test compound.
# A dose ratio of EC50 doses was then calculated from the results of each test in a manner known by those of skill in the art. A test compound was determined to be "active" if the initial concentration used yielded at least a two-fold shift (dose ratio greater than or equal to 2) in the dose response curve for prostaglandin E2.
# mouse injected with PBQ = assay: Writhing Assay (PBQ-induced writhing in mice); assay type: in vivo, Charles River male albino mice; conditions: for ED50: Mus musculus
# Excerpt: The Writhing Assay is one of the most widely-used experimental procedures for measuring the analgesic activity of different narcotic and nonnarcotic analgesic agents, and involves the continuous, chemically-induced pain of visceral origin to an animal, such as a mouse or rat. [Gyires et al., Arch., int. Pharmacodyn, 267, 131-140 (1984); C. Vander Wende et al., Fed. Proc., 15, 494 (1956); Koster et al., Fed. Proc., 18, 412 (1959); and Witken et al., J. Pharmacol. exp. Ther., 133, 400-408 (1961).] Chemicals which may be used to induce this pain include phenylbenzoquinone (PBQ) and acetic acid. As a result of the chemical irritation to the animal, a characteristic stretching and writhing of the animal (dorsiflexion of the animal's back, extension of its hindlimbs and the strong contraction of its abdominal musculature) will generally occur. […] Drugs which reduce the number of writhes of the animal appear to restore the normal nociceptive threshold of the animal.
# Charles River male albino mice, weighing 20 to 30 grams, were used in this assay.
# Thirty minutes after subcutaneous or intragastric administration to ten mice of 30 mg per kilogram of body weight of a compound of the present invention ("test compound"), […] per 10 g of body weight of a 0,025% w/v solution of PBQ was injected intraperitoneally into each mouse. Ten mice which were given saline in place of a test compound of the invention were used as a control group.
# Five minutes later, each mouse was individually placed into a glass beaker for observation, and the number of writhes occurring during the following ten-minute period was counted.
# A test compound was considered to have produced analgesia in a mouse if, in accordance with the conditions set forth above, and under the test criteria employed for this assay, after the administration of 30 mg per kilogram of body weight of a compound of the present invention to the mouse, the number of writhes elicited by a mouse injected with PBQ was equal to, or less than, one-half the median number of writhes recorded for the saline-treated control group of mice that day, as described by Taber in "Predictive Value of Analgesic Assays in Mice and Rats," Advances in Biochemical Psychopharmacology, 8, 191 (1974).
# The standard initial screening dose of a test compound employed in this assay was […] for both routes of administration. If this initial screening dose of the test compound produced analgesia in seven of ten mice, then the effect of additional doses of the test compound on the writhing response was evaluated, and then the ED50 dose was generally calculated. (The slopes of the dose-response curves for all test compounds analyzed were compared as described by Tallarida and Murray, Manual of Pharmacologic Calculations, Page 11 (Springer Verlag, New York, 1981)).
# [2] = test system: stimulant actions of prostaglandins on isolated smooth muscle preparations; conditions: literature; cited from earlier work
# [3] = test system: urethane-anesthetized rats; conditions: literature; cited from earlier work
# [4] = estimated, assuming Schild slope -1.0, initial concentration 3 micromolar, read-out: PGE in guinea pig ileum, Estimated pA2 value (converted)
# [5] = initial concentration 3 micromolar
# [6] = sc, subcutaneous, read-out: Writhing Assay ED50 Dose, S.C.
# [7] = po, intragastric, read-out: Writhing Assay ED50 Dose, I.G.
# [8] = Schild plot calculation, varying concentrations, read-out: PGE in guinea pig ileum (pA2) (converted)
Structure (SMILES),"Kb [1, 4] [nM]","PGE in guinea pig ileum, activity [1, 5]",rank order of potency in the Writhing Assay (mouse injected with PBQ),"Kb [1, 8] [nM]",further results
"CN(C)CCSCCC(=O)NCC(=O)N1Cc2ccccc2Oc2ccc(Cl)cc21 [Example 6, N-[2-(8-chloro,10,11-dihydrodibenz[b,f][1,4]oxazepin-10-yl)-2-oxoethyl]-3-[[2-(dimethylamino)ethyl]thio]propanamide, monohydrochloride]",1260,Active,–,–,–
"O=C(CCc1ccncc1)NCC(=O)N1Cc2ccccc2Oc2ccc(Cl)cc21 [Example 3, N-[2-{8-chloro-10,11-dihydrodibenz[b,f][1,4]oxazepin-10-yl)-2-oxoethyl]-4-pyridinepropanamide, monohydrochloride]",2000,Active,Example 1>Example 2>Example 3>Example 9,–,ED50 (mouse injected with PBQ; [6]): 16.9 mg/kg
"O=C(CCSCc1ccco1)NCC(=O)N1Cc2ccccc2Oc2ccc(Cl)cc21 [Example 2, N-[2-(8-chloro-10,11-dihydrodibenz[b,f][1,4]oxazepin-10-yl)-2-oxoethyl]-3[(2-furanylmethyl)thio]propanamide]",–,Active,Example 1>Example 2>Example 3>Example 9,10,ED50 (mouse injected with PBQ; [7]): 13.5 mg/kg; ED50 (mouse injected with PBQ; [6]): 14.8 mg/kg
"CCS(=O)(=O)CCC(=O)NCC(=O)N1Cc2ccccc2Oc2ccc(Cl)cc21 [Example 1, N-[2-(8-chloro-10,11-dihydrodibenz[b,f][1,4]oxazepin-10-yl)-2-oxoethyl]-3-(ethylsulfonyl) propanamide]",2000,Active,Example 1>Example 2>Example 3>Example 9; also recorded: the most potent compound of the invention tested in this assay,–,ED50 (mouse injected with PBQ; [7]): 5.9 mg/kg; ED50 (mouse injected with PBQ; [6]): 11.2 mg/kg
"O=C(CCSCc1cccs1)NCC(=O)N1Cc2ccccc2Oc2ccc(Cl)cc21 [Example 4, N-[2-(8-chlorodibenz-10-11-dihydrobenz[b,f][1,4]oxazepin-10-yl)-2-oxoethyl]-3-[(2-thenylmethyl)thio]propanamide]",–,Active,–,12.6,–
O=C(Cc1ccccc1)NNC(=O)N1Cc2ccccc2Oc2ccc(Cl)cc21 [SC-18637],–,–,–,–,effect on stimulant actions of prostaglandins on isolated smooth muscle preparations [2]: inhibit the stimulant actions of prostaglandins on isolated smooth muscle preparations
"O=C(CCSCc1ccco1)CNC(=O)N1Cc2ccccc2Oc2ccc(Cl)cc21 [Example 9, 8-chloro-N-[4-[(2-furanylmethyl)thio]-2-oxobutyl]dibenz[b,f][1,4]oxazepin-10(11H]-carboxamide]",–,Active,Example 1>Example 2>Example 3>Example 9,63.1,–
CC(=O)NNC(=O)N1Cc2ccccc2Oc2ccc(Cl)cc21 [SC-19220],–,–,–,–,effect on stimulant actions of prostaglandins on isolated smooth muscle preparations [2]: inhibit the stimulant actions of prostaglandins on isolated smooth muscle preparations; effect on bladder capacity [3]: increased the bladder capacity; effect on voiding efficiency of micturition [3]: reduced the voiding efficiency of micturition
"NCCC(=O)NCC(=O)N1Cc2ccccc2Oc2ccc(Cl)cc21 [Example 5, 3-Amino-N-[2-(8-chloro-10,11-dihydrodibenz[b,f][1,4]oxazepin-10-yl)-2-oxoethyl]-propanamide, monohydrochloride]",–,Active,–,–,"PGE in guinea pig ileum, Estimated pA2 value ([1]; estimated, assuming Schild slope -1.0, initial concentration 3 micromolar): 5.5"
"O=C(CCNCc1cccs1)NCC(=O)N1Cc2ccccc2Oc2ccc(Cl)cc21 [Example 7, N-[2-(8-chloro-10,11-dihydrodibenz[b,f][1,4]oxazepin-10-yl)-2-oxoethyl)-3-[(2-thienylmethyl)amino]propanamide, monohydrochloride]",–,Active,–,316,–
"CCS(=O)(=O)CCC(=O)CNC(=O)N1Cc2ccccc2Oc2ccc(Cl)cc21 [Example 8, 8-chloro-N-[4-(ethylsulfonyl)-2-oxobutyl]dibenz[b,f][1,4]oxazepin-10(11H)-carboxamide]",2510,Active,–,–,–
